Data on two molecules can be found in ChEMBL document CHEMBL1128541 (J Med Chem, 1995).

One test deals with Phosphodiesterase 3 (Homo sapiens, UniProt Q14432+Q13370). The test is described as follows: Inhibition of human platelet Phosphodiesterase 3.
Another test addresses Cyclooxygenase (Homo sapiens, UniProt P35354+P23219). As to the kind of experiment: Inhibitory activity against Prostaglandin G/H synthase. The test is classed as protein assay.
The target of test [1] is T1, cGMP-dependent 3',5'-cyclic phosphodiesterase (Rattus norvegicus, UniProt Q01062).
T1 sequence (Q01062 whole entry): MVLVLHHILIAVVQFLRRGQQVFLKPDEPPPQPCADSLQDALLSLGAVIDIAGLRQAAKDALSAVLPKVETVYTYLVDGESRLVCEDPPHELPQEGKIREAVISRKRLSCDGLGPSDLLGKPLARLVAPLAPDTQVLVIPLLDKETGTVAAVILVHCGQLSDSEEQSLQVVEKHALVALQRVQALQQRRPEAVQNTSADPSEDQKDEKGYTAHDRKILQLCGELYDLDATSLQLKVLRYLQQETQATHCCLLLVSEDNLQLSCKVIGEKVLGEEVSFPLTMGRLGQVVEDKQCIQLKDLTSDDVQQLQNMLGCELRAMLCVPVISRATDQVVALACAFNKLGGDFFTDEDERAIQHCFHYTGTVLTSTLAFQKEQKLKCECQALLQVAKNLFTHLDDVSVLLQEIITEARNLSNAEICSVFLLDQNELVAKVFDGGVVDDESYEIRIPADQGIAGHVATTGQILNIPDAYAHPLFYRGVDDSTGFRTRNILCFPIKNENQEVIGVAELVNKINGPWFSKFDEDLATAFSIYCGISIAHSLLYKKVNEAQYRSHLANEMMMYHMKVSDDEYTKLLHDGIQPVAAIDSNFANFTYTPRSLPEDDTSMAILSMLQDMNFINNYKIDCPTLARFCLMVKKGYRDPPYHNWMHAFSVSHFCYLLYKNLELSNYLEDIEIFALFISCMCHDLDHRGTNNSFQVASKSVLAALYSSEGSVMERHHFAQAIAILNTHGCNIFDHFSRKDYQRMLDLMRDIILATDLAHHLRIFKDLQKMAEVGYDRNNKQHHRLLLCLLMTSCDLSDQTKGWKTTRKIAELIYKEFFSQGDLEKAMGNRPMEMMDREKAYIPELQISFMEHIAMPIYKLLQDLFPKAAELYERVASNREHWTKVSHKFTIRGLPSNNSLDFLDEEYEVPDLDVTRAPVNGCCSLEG
As to the kind of experiment: Inhibition of rat brain Phosphodiesterase 2.

For test [2], the target named is cGMP-specific 3',5'-cyclic phosphodiesterase (Homo sapiens, UniProt O76074). The test is described as follows: Inhibitory activity against phosphodiesterase 5 from human platelets.
A further test concerns the target Phosphodiesterase 1 (Bos taurus, UniProt Q01061+P14100). As to the kind of experiment: Inhibition of bovine aorta Phosphodiesterase 1. The format is protein assay.
A further test has as its target Phosphodiesterase 4 (Rattus norvegicus, UniProt P14270+P14646+P14644+P54748). The test is described as follows: Inhibition of rat kidney Phosphodiesterase 4. The test is classed as protein assay.
The species named for test [3] is Rattus norvegicus. As to the kind of experiment: Ex vivo inhibition of Thromboxane B2 production in A-23,187-Induced Rat Whole Blood. The test is classed as functional.
The species entered for test [4] is Rattus norvegicus. As to the kind of experiment: In vitro inhibition of Thromboxane B2 production in A-23,187-Induced Rat Whole Blood. The format is functional.
The target of another test is T2, Thromboxane-A synthase (Homo sapiens, UniProt P24557).
T2 sequence (P24557 whole entry): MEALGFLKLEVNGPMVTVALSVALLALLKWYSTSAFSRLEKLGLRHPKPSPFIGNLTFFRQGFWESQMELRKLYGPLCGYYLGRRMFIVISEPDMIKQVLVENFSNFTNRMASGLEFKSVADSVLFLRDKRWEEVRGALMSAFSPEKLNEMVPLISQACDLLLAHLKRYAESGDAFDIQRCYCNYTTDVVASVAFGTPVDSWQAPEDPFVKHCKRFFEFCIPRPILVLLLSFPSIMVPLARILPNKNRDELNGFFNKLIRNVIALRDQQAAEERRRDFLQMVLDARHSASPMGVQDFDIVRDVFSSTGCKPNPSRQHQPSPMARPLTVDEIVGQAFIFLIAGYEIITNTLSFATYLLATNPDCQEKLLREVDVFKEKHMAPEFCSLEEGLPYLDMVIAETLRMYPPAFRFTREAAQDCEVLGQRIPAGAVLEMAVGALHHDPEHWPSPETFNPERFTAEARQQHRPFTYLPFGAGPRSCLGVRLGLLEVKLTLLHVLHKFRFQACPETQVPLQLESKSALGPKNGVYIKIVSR
The test is described as follows: In vitro inhibition of Thromboxane A2 synthase in human platelet.

The species entered for a further test is Homo sapiens. The test is described as follows: In vitro inhibition of Thromboxane A2 synthesis in human platelet. The format is functional.

Each structure is given as a SMILES string.

As a reminder, the IC50 is the concentration at which inhibition is half-maximal. Lower therefore signals greater potency. A word on the ED50: it is the midpoint of the dose-response relation. A higher ED50 goes with weaker potency. With `c1ccc(CNc2nc(-n3ccnc3)nc3ccccc23)cc1`, the IC50 amounted to 50 µM against Phosphodiesterase 3; 51 µM against Cyclooxygenase; 25 µM in test [1]; 0.26 µM in test [2]; 14 µM at Phosphodiesterase 1; 3.1 µM against Phosphodiesterase 4. The IC50 in the test filed under Rattus norvegicus [4] was 1.1 µM; at Thromboxane-A synthase it was 0.22 µM. The same molecule showed a median effective dose (ED50) in the test filed under Rattus norvegicus [3] of 5.7 mg/kg.

Take `O=C(O)/C=C/c1ccc(Cn2ccnc2)cc1` [OZAGREL]: half-maximal inhibition in the test listed under Homo sapiens (IC50) was put at 3.3 µM. In other words, the single-digit micromolar range.
